The source of these data is PMC8587015, “AGSE: A Novel Grape Seed Extract Enriched for PP2A Activating Flavonoids That Combats Oxidative Stress and Promotes Skin Health” (Molecules, 2021).

Values after ≈ are worked out from the molar mass of the structure shown. A value given as a limit tells only on which side of the number the result lay.

Test [1] in a line: Cell-free antioxidant ABTS assay by metmyoglobin. In kind it is biochemical. The source says:
(§1) Radical scavenging antioxidant assay was estimated using the colorimetric antioxidant assay kit obtained from Cayman Chemical Company (Ann Arbor, MI, USA). ABTS (2, 2′-Azino-bis-[3-ehthylbenzthiazoline sulphonate]) was used as the chromogen, which changes into a colored monocation radical form (ABTS^•+) by metmyoglobin in the presence of hydrogen peroxide, and monitored by measuring absorption at 750 nm using a plate reader (Envision-PerkinElmer; Waltham, MA, USA). Antioxidant inhibition was calculated based on the discoloration of ABTS by serial concentrations of test compounds added simultaneously with myoglobin and hydrogen peroxide. NHDF cells were cultured in DMEM with 10% fetal bovine serum (FBS) and seeded into black wall 96-well plates and incubated for 24 h before treatment. Cells were pre-treated for 3 h with and without test compounds (0.01–3 µM final concentrations) and labeled with 50 µM of dichloro-dihydro-fluorescein diacetate (DCFH-DA). Total fluorescence (Excitation = 485 nm; Emission = 535 nm) was measured after cells were co-incubated for 20 min with 0.1 mM H2O2 and the test compounds. Cell protection against oxidative stress was calculated using the following formula: Cell protection (%) = [(test compound (%) − hydrogen peroxide-only (%))/([…] − untreated control (%))] × 100.

The next test deals with NHDFs intracellular ROS. Nature of the test: Intracellular antioxidant assay (DCFH-DA) in NHDFs after H2O2 induction. The test is classed as cell-based, human. The conditions noted are these: 3 h pre-incubation.
Source text: as §1

For test [2], the target named is T1, PME-1 (Protein phosphatase methylesterase 1) (Homo sapiens, UniProt Q9Y570).
T1 sequence (Q9Y570 1-386): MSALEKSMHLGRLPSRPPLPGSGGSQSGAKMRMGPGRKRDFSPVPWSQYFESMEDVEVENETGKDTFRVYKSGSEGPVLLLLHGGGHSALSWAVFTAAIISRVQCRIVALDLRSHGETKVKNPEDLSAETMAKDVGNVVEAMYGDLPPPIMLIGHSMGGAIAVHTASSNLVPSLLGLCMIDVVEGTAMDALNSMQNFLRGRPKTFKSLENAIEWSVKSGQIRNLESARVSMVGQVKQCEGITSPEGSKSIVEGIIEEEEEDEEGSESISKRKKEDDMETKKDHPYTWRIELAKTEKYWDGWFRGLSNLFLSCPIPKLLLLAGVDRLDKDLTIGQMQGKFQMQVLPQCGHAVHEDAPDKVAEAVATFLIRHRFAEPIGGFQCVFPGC
Kind of test: Demethylation of PP2A by PME-1, radioactive filter binding assay. The test is classed as biochemical. The note with it: GSE flavonoids / grape seed components; read-out: IC50, PP2A demethylation activity assay. The protocol:
[^3H]-labeled methylated PP2A AC dimer was prepared by incubating PP2A, LCMT1 and [^3H]-SAM (PerkinElmer; Waltham, MA, USA) in 50 mM MOPS-Na (pH 7.2), 5 mM MgCl2, and 1 mM DTT at room temperature for 1 h. Demethylation of PP2A by PME-1 (Protein phosphatase methylesterase 1) was measured using the radioactive filter binding assay format. 20 nM PME-1 was incubated for 15 min with extract or compound, then 20 nM of [^3H]-labeled methylated PP2A AC dimer was added. Reactions were run at room temperature for 30 min then applied to a 96-well filter plate (MilliporeSigma; Burlington, MA, USA.) containing 30% TCA where proteins were precipitated and separated from the excess of [^3H]-SAM by washing with 70% ethanol. [^3H]-incorporation was measured using TopCount NXT scintillation counter (PerkinElmer; Waltham, MA, USA). IC50 values were generated from dose–response curves using a four-parameter logistic curve fit in SigmaPlot (Systat Software, Inc., Palo Alto, CA, USA).

In another test the test system is NHDFs-UVA-IL-6. Nature of the test: UVA-induced IL-6 release from NHDFs (ELISA). In kind it is cell-based, human. The protocol: (§2) Primary normal human epidermal keratinocytes (NHEKs) and dermal fibroblasts (NHDFs) were purchased from ThermoFisher (Carlsbad, CA, USA) and cultured in EpiLife™ medium (NHEKs) supplemented with Human Keratinocyte Growth Supplement (HKGS) or DMEM (NHDFs) + 10% FBS. All cell types were seeded in plates with growth factor-supplemented medium for 24 h and later media was replaced with growth factor-depleted media for an additional 24 h before treatments and grown at normal conditions (5% CO2; 37 °C).
(§3) Cells were pre-incubated for 2–6 h with test materials (1% v/v ethanol vehicle) in fresh growth factor-depleted media in triplicates. NHEKs were induced by 5 ng/mL TPA for 24 h or irradiated with 25 mJ/cm^2 (15 s) broadband 305–12 nm UVB (Daavlin; Bryan, OH, USA) without test materials and incubated for an additional 18 h. NHDFs were irradiated with 12.5 J/cm^2 UVA (350–12 nm; 40 min) and later incubated without test materials for an additional 18 h. Media supernatants were harvested after induction and used to measure levels of Interleukin-6 (IL-6), Interleukin-8 (IL-8), collagenase (pro-MMP1) or tumor necrosis factor-α (TNF-α) by sandwich ELISA kits (BD Biosciences; San Jose, CA, USA or R&D Systems; Minneapolis, MN, USA). Cells were subjected to viability tests by MTS reduction assay (Promega; Madison, WI, USA).
(§4) Statistical significance was determined by ANOVA followed by a Dunnett multiple comparisons test using p-values less than 0.05 as a significant difference. For all biochemical measurements and cytokine levels, samples were assayed in triplicate. Cytokine dose–response curves were generated by fitting data with the Hill, three-parameter equation using the Sigma Plot software, from which the IC50 and maximum inhibition were determined.

For a further test, the system named is NHEK-UVB-IL-8. Nature of the test: UVB-induced IL-8 release from NHEKs (ELISA). In kind it is cell-based, human. The protocol:
as §2, §3, §4

For a further test, the system named is NHEK-UVB-TNFα. Nature of the test: UVB-induced TNFα release from NHEKs (ELISA). In kind it is cell-based, human. The protocol:
as §2, §3, §4

The test system of a further test is NHEK-TPA-IL-8. Kind of test: TPA-induced IL-8 release from NHEKs (ELISA). In kind it is cell-based, human. The note with it: 5 ng/mL TPA, 24 h. The protocol:
as §2
Cells were pre-incubated for 2–6 h with test materials (1% v/v ethanol vehicle) in fresh growth factor-depleted media in triplicates. NHEKs were induced by 5 ng/mL TPA for 24 h or irradiated with 25 mJ/cm^2 (15 s) broadband 305–12 nm UVB (Daavlin; Bryan, OH, USA) without test materials and incubated for an additional 18 h. NHDFs were irradiated with 12.5 J/cm^2 UVA (350–12 nm; 40 min) and later incubated without test materials for an additional 18 h. […]
Statistical significance was determined by ANOVA followed by a Dunnett multiple comparisons test using p-values less than 0.05 as a significant difference. […] Cytokine dose–response curves were generated by fitting data with the Hill, three-parameter equation using the Sigma Plot software, from which the IC50 and maximum inhibition were determined.

Where [3] appears, read: Homo sapiens, NHEK, light or radiation study, UVB 25 mJ/cm^2.

As to `Cc1c(C)c2c(c(C)c1O)CC[C@@](C)(CCC[C@H](C)CCC[C@H](C)CCCC(C)C)O2` [Vitamin E, α-tocopherol], the “IC50, H2O2-induced free radical ROS production” value in test [1] amounted to 18.6 µg/mL (≈ 43.2 µM). Besides, the IC50 in the test on NHDFs intracellular ROS (Homo sapiens, NHDF, read-out: IC50, intracellular oxidative stress) was more than 100 µg/mL.

Consider `COc1cc(/C=C/C(=O)O)ccc1O` [Ferulic acid], for which, in test [2], the half-inhibitory concentration (IC50) is more than 15 µM. In the test on NHDFs-UVA-IL-6 (UVA 12.5 J/cm^2), the “IC50 NHDFs-UVA-IL-6” value came out at 0.01 µg/mL (≈ 0.0515 µM). The “IC50 NHEK-UVB-IL-8” value with NHEK-UVB-IL-8 (UVB 25 mJ/cm^2) is on record as less than 0.01 µg/mL. The “IC50 NHEK-UVB-TNFα” value with NHEK-UVB-TNFα (UVB 25 mJ/cm^2) is on record as less than 0.01 µg/mL.

As to `CC1=C(/C=C/C(C)=C/C=C/C(C)=C/C(=O)O)C(C)(C)CCC1` [ATRA, all-trans retinoic acid], the concentration for half-maximal inhibition (IC50) was more than 1 µg/mL with NHDFs-UVA-IL-6 (Homo sapiens, NHDF, light or radiation study, UVA 12.5 J/cm^2); more than 1 µg/mL in the test with NHEK-UVB-IL-8 (setting [3]); more than 1 µg/mL in the test with NHEK-UVB-TNFα (setting [3]). Also, in the test on NHDFs-UVA-IL-6 (highest non-toxic dose tested), the “effect on UVA-induced IL-6 release (in words)” value is recorded as “did not have any effect”. In addition, the “effect on UVB-induced IL-8 release (in words)” value with NHEK-UVB-IL-8 (highest non-toxic dose tested) was “did not have any effect”. Also, the “effect on UVB-induced TNFα release (in words)” value in the test with NHEK-UVB-TNFα (highest non-toxic dose tested) is “did not have any effect”.

Take `O=C1O[C@H]([C@@H](O)CO)C(O)=C1O` [Vitamin C]: the “IC50, H2O2-induced free radical ROS production” value in test [1] worked out at 10.1 µg/mL (≈ 57.3 µM). Besides, in the test with NHDFs intracellular ROS, the “IC50, intracellular oxidative stress” value is recorded as 0.6 µg/mL (≈ 3.41 µM). Besides, the “IC50 NHDFs-UVA-IL-6” value in the test on NHDFs-UVA-IL-6 (UVA 12.5 J/cm^2) is reported as more than 10 µg/mL. Also, the “IC50 NHEK-UVB-IL-8” value in the test with NHEK-UVB-IL-8 (UVB 25 mJ/cm^2) was more than 10 µg/mL. In addition, the “IC50 NHEK-UVB-TNFα” value with NHEK-UVB-TNFα (UVB 25 mJ/cm^2) was more than 10 µg/mL.

As for `C[C@H]1C[C@H]2[C@@H]3CCC4=CC(=O)C=C[C@]4(C)[C@@]3(F)[C@@H](O)C[C@]2(C)[C@@]1(O)C(=O)CCl` [Clobetasol], in the test on NHEK-TPA-IL-8, the “IC50 NHEK-TPA-IL-8” value came to 0.0005 ng/mL (≈ 1.22e-06 µM).
